The source made the active and inactive calls. The rule behind the calls is not given here.

One data set relates to Mus musculus. The experiment in a line: Anti-NASH activity against high fat (HF) diet-induced nonalcoholic steatohepatitis in leptin-deficient ob/ob mouse model assessed as reduction in serum TG level at 3 mg/kg, po administered once daily from week 5 to 10. Type of data set: functional, organism-based.
Details: not given
As for `CC1=Cc2ccc(C(=O)O)cc2Oc2ccc(OCc3c(-c4c(Cl)cccc4Cl)noc3C3CC3)nc21`, the outcome was Active.

For `CC1Cc2ccc(C(=O)O)cc2Oc2ccc(OCc3c(-c4c(Cl)cccc4Cl)noc3C3CC3)nc21` (stereo unspecified), the result was Active.

`O=C(O)c1ccc2c(c1)Oc1ccc(OCc3c(-c4c(Cl)cccc4Cl)noc3C3CC3)nc1CC2`: the result was Active.

Test system in another data set: not listed separately
In words: Oral bioavailability in male Sprague-Dawley rat at 5 mg/kg measured by LC-MS/MS analysis. Type of data set: ADME, organism-based. The settings on record: in vivo.
Broadly, the bioavailability is dose-corrected exposure relative to a reference, in per cent. Read a high bioavailability as good availability. `CC1=Cc2ccc(C(=O)O)cc2Oc2ccc(OCc3c(-c4c(Cl)cccc4Cl)noc3C3CC3)nc21`: the bioavailability was 46.2%.

`CC1Cc2ccc(C(=O)O)cc2Oc2ccc(OCc3c(-c4c(Cl)cccc4Cl)noc3C3CC3)nc21` (stereo unspecified) displayed a bioavailability of 44.9%.

For the compound `O=C(O)c1ccc2c(c1)Oc1ccc(OCc3c(-c4c(Cl)cccc4Cl)noc3C3CC3)nc1CC2`, the bioavailability is 37.1%.

Test system in the next data set: not listed separately
In words: AUC (0 to t) in male Sprague-Dawley rat at 5 mg/kg, po measured by LC-MS/MS analysis. Format: ADME, organism-based. Also noted: dose 5 mg/kg, route po. The conditions noted are these: in vivo.
Broadly, the AUC(0-t) is the area under the concentration-time curve up to a stated or last time point. Higher therefore signals more exposure. Turning to `CC1=Cc2ccc(C(=O)O)cc2Oc2ccc(OCc3c(-c4c(Cl)cccc4Cl)noc3C3CC3)nc21`, the AUC(0-t) was 1180 ng·h/mL.

Regarding `CC1Cc2ccc(C(=O)O)cc2Oc2ccc(OCc3c(-c4c(Cl)cccc4Cl)noc3C3CC3)nc21` (stereo unspecified), the exposure AUC(0-t) came out at 2230 ng·h/mL.

Consider `O=C(O)c1ccc2c(c1)Oc1ccc(OCc3c(-c4c(Cl)cccc4Cl)noc3C3CC3)nc1CC2`, for which the AUC(0-t) was 1250 ng·h/mL.

The test system of another data set is Mus musculus. In words: Anti-NASH activity against high fat (HF) diet-induced nonalcoholic steatohepatitis in leptin-deficient ob/ob mouse model assessed as reduction in serum ALT level at 3 mg/kg, po administered once daily from week 5 to 10. Format: functional, organism-based.
Details: not given
As to `CC1=Cc2ccc(C(=O)O)cc2Oc2ccc(OCc3c(-c4c(Cl)cccc4Cl)noc3C3CC3)nc21`, the outcome was Active.

As for `CC1Cc2ccc(C(=O)O)cc2Oc2ccc(OCc3c(-c4c(Cl)cccc4Cl)noc3C3CC3)nc21` (stereo unspecified), the result was Active.

For the compound `O=C(O)c1ccc2c(c1)Oc1ccc(OCc3c(-c4c(Cl)cccc4Cl)noc3C3CC3)nc1CC2`, the outcome was Active.

Test system in a further data set: not listed separately
The experiment in a line: Half-life in male Sprague-Dawley rat at 5 mg/kg, po measured by LC-MS/MS analysis. The settings on record: in vivo. Type of data set: ADME, organism-based.
What is called half-life is the time in which the quantity being followed falls by half. A higher half-life goes with slow decline. `CC1=Cc2ccc(C(=O)O)cc2Oc2ccc(OCc3c(-c4c(Cl)cccc4Cl)noc3C3CC3)nc21` gave a half-life of 72 min.

Take `CC1Cc2ccc(C(=O)O)cc2Oc2ccc(OCc3c(-c4c(Cl)cccc4Cl)noc3C3CC3)nc21` (stereo unspecified): the half-life is 55.8 min.

On to `O=C(O)c1ccc2c(c1)Oc1ccc(OCc3c(-c4c(Cl)cccc4Cl)noc3C3CC3)nc1CC2`, for which the half-life was 44.4 min. This half-life and that of the compound before are within 1.5-fold of each other.

Test system in a further data set: not listed separately
The experiment in a line: Volume of distribution at steady state in male Sprague-Dawley rat at 1 mg/kg, iv measured by LC-MS/MS analysis. Format: ADME, organism-based. The settings on record: in vivo, read-out: Vdss.
For the compound `CC1=Cc2ccc(C(=O)O)cc2Oc2ccc(OCc3c(-c4c(Cl)cccc4Cl)noc3C3CC3)nc21`, the Vd stood at 0.35 L/kg.

Consider `CC1Cc2ccc(C(=O)O)cc2Oc2ccc(OCc3c(-c4c(Cl)cccc4Cl)noc3C3CC3)nc21` (stereo unspecified), for which the Vd is 0.54 L/kg.

In the case of `O=C(O)c1ccc2c(c1)Oc1ccc(OCc3c(-c4c(Cl)cccc4Cl)noc3C3CC3)nc1CC2`, the Vd was determined as 0.4 L/kg.

Test system in a further data set: not listed separately
The experiment in a line: AUC (0 to t) in male Sprague-Dawley rat at 1 mg/kg, iv measured by LC-MS/MS analysis. Type of data set: ADME, organism-based. Also noted: dose 1 mg/kg, route iv. The settings on record: in vivo.
`CC1=Cc2ccc(C(=O)O)cc2Oc2ccc(OCc3c(-c4c(Cl)cccc4Cl)noc3C3CC3)nc21` registered an AUC(0-t) of 963 ng·h/mL.

Take `CC1Cc2ccc(C(=O)O)cc2Oc2ccc(OCc3c(-c4c(Cl)cccc4Cl)noc3C3CC3)nc21` (stereo unspecified): the exposure AUC(0-t) worked out at 554 ng·h/mL.

On to `O=C(O)c1ccc2c(c1)Oc1ccc(OCc3c(-c4c(Cl)cccc4Cl)noc3C3CC3)nc1CC2`, for which the AUC(0-t) is 1180 ng·h/mL.

The test system of a further data set is Mus musculus. In words: Anti-NASH activity against high fat (HF) diet-induced nonalcoholic steatohepatitis in leptin-deficient ob/ob mouse model assessed as reduction in liver cholesterol level at 3 mg/kg, po administered once daily from week 5 to 10. Format: functional, organism-based.
Details: not given
In the case of `CC1=Cc2ccc(C(=O)O)cc2Oc2ccc(OCc3c(-c4c(Cl)cccc4Cl)noc3C3CC3)nc21`, the result was Active.

`CC1Cc2ccc(C(=O)O)cc2Oc2ccc(OCc3c(-c4c(Cl)cccc4Cl)noc3C3CC3)nc21` (stereo unspecified): the outcome was Active.

Turning to `O=C(O)c1ccc2c(c1)Oc1ccc(OCc3c(-c4c(Cl)cccc4Cl)noc3C3CC3)nc1CC2`, the result was Active.

Test system in another data set: not listed separately
In words: Clearance in male Sprague-Dawley rat at 1 mg/kg, iv measured by LC-MS/MS analysis. Format: ADME, organism-based. The settings on record: in vivo.
Broadly, the clearance is a measure of how efficiently the substance is removed, as volume per time. `CC1=Cc2ccc(C(=O)O)cc2Oc2ccc(OCc3c(-c4c(Cl)cccc4Cl)noc3C3CC3)nc21` showed a clearance of 17.5 mL/min/kg.

`CC1Cc2ccc(C(=O)O)cc2Oc2ccc(OCc3c(-c4c(Cl)cccc4Cl)noc3C3CC3)nc21` (stereo unspecified) showed a clearance of 30.3 mL/min/kg.

For `O=C(O)c1ccc2c(c1)Oc1ccc(OCc3c(-c4c(Cl)cccc4Cl)noc3C3CC3)nc1CC2`, the clearance turned out to be 14.3 mL/min/kg.

A further data set deals with T1, Bile acid receptor (Homo sapiens, UniProt Q96RI1).
T1 sequence (Q96RI1 whole entry): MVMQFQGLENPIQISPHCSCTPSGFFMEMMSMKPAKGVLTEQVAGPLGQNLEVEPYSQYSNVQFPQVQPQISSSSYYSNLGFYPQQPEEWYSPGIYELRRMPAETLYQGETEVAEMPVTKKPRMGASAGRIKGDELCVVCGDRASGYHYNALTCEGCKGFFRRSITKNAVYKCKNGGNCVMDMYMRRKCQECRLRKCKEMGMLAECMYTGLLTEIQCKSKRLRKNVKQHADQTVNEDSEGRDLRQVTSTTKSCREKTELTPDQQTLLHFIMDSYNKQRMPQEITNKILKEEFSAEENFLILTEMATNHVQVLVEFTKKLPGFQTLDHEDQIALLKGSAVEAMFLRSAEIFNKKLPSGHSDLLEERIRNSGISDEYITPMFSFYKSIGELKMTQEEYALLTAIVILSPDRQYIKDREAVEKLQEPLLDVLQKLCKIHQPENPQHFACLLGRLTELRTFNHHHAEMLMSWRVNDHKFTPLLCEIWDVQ
The experiment in a line: Agonist activity at human FXR expressed in HEK293T cells by luciferase reporter assay. Type of data set: cell-based.
Details: not given
A general note: Reporter assays use an easily measured gene product as a stand-in for the process of interest.
A word on the EC50: it is the midpoint of the concentration-response curve. As for `O=C(O)c1ccc2c(c1)Oc1ccc(OCc3c(-c4c(Cl)cccc4Cl)noc3C3CC3)cc1CC2`, the EC50 came to 345 nM.

Turning to `O=C(O)c1cc(F)c2c(c1)Oc1ccc(OCc3c(-c4c(Cl)cccc4Cl)noc3C3CC3)nc1CC2`, the EC50 came to 372 nM.

For `O=C(O)c1ccc2c(c1)Oc1ccc(OCc3c(-c4c(Cl)cccc4Cl)noc3C3CC3)nc1CO2`, the concentration giving a half-maximal response (EC50) was 114 nM.

For the compound `O=C(O)c1ccc2c(c1)Oc1cnc(OCc3c(-c4c(Cl)cccc4Cl)noc3C3CC3)cc1CC2`, it took 161 nM to reach a half-maximal effect (EC50).

With `O=C(O)c1ccc2c(c1)Oc1ccc(OCc3c(-c4c(Cl)cccc4Cl)noc3C3CC3)nc1C=C2F`, the EC50 came out at 219 nM.

As to `CC1=Cc2nc(OCc3c(-c4c(Cl)cccc4Cl)noc3C3CC3)ccc2Oc2cc(C(=O)O)ccc21`, the EC50 worked out at 87.3 nM.

Turning to `O=C(O)c1ccc2c(c1)Oc1ccc(OCc3c(-c4c(Cl)cccc4Cl)noc3C3CC3)nc1CC2`, the EC50 stood at 102 nM.

Test system in another data set: not listed separately
The experiment in a line: Toxicity in alpha-naphthyl- isothiocyanate (ANIT)-induced cholestatic injury model of Sprague-Dawley rat assessed as effect on […] death at 10 mg/kg, po administered once daily for 4 days. The conditions noted are these: in vivo, 96 h, time 4 day. Type of data set: organism-based.
Consider `O=C(O)c1ccc2c(c1)Oc1ccc(OCc3c(-c4c(Cl)cccc4Cl)noc3C3CC3)cc1CC2`, for which the Activity result is on record as “Toxic”.

Test system in another data set: not listed separately
The experiment in a line: Cmax in male Sprague-Dawley rat at 5 mg/kg, po measured by LC-MS/MS analysis. Format: ADME, organism-based. The settings on record: in vivo. Also noted: dose 5 mg/kg, route po.
A word on the Cmax: it is the peak of the concentration-time curve. For the compound `CC1=Cc2ccc(C(=O)O)cc2Oc2ccc(OCc3c(-c4c(Cl)cccc4Cl)noc3C3CC3)nc21`, the Cmax worked out at 2210 ng/mL.

`CC1Cc2ccc(C(=O)O)cc2Oc2ccc(OCc3c(-c4c(Cl)cccc4Cl)noc3C3CC3)nc21` (stereo unspecified) returned a Cmax of 1280 ng/mL.

For the compound `O=C(O)c1ccc2c(c1)Oc1ccc(OCc3c(-c4c(Cl)cccc4Cl)noc3C3CC3)nc1CC2`, the highest concentration (Cmax) came to 3000 ng/mL.

A further data set deals with T1, Bile acid receptor. In words: Agonist activity at FXR-LBD (unknown origin) assessed as induction of coactivator SRC-1 peptide recruitment measured by TR-FRET assay.
Details: not given
Take `O=C(O)c1ccc2c(c1)Oc1ccc(OCc3c(-c4c(Cl)cccc4Cl)noc3C3CC3)cc1CC2`: the concentration for a half-maximal effect (EC50) stood at 833 nM.

For the compound `O=C(O)c1ccc2c(c1)Oc1ccc(OCc3c(-c4c(Cl)cccc4Cl)noc3C3CC3)nc1CO2`, the EC50 worked out at 14.3 nM.

As to `O=C(O)c1ccc2c(c1)Oc1cnc(OCc3c(-c4c(Cl)cccc4Cl)noc3C3CC3)cc1CC2`, the concentration for a half-maximal effect (EC50) was 11.7 nM.

For the compound `O=C(O)c1ccc2c(c1)Oc1ccc(OCc3c(-c4c(Cl)cccc4Cl)noc3C3CC3)nc1C=C2F`, the EC50 came to 17.3 nM.

On to `O=C(O)c1ccc2c(c1)Oc1ncc(OCc3c(-c4c(Cl)cccc4Cl)noc3C3CC3)cc1CC2`, for which the EC50 was 37 nM.

Consider `CC1=Cc2nc(OCc3c(-c4c(Cl)cccc4Cl)noc3C3CC3)ccc2Oc2cc(C(=O)O)ccc21`, for which the EC50 amounted to 6.03 nM.

On to `O=C(O)c1ccc2c(c1)Oc1ccc(OCc3c(-c4c(Cl)cccc4Cl)noc3C3CC3)nc1CC2`, for which the EC50 is 3.57 nM.

Test system in a further data set: not listed separately
In words: Toxicity in alpha-naphthyl- isothiocyanate (ANIT)-induced cholestatic injury model of Sprague-Dawley rat assessed as effect on […] death. The settings on record: in vivo.
As to `O=C(O)c1ccc2c(c1)Oc1ccc(OCc3c(-c4c(Cl)cccc4Cl)noc3C3CC3)nc1CC2`, the Activity entry was “Non-Toxic”.

(Values after ChEMBL document CHEMBL5154690, “Discovery of a tricyclic farnesoid X receptor agonist HEC96719, a clinical candidate for treatment of non-alcoholic steatohepatitis” (Eur J Med Chem, 2022).)
